In PubChem BioAssay (NCI):
Where “and” joins values, the source holds several entries; their conditions need not be identical. Equal values may be shown once.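 Interpolation was linear, between the two tested concentrations surrounding the appropriate level; five concentrations were tested over 48 hours in 96-well plates. Abbreviation: GI50, concentration required for 50% inhibition of growth. TGI marks complete inhibition of growth.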

Legend:
Assay in all cases: inhibition of tumour cell growth, NCI panel, 48 h
SW-620 colon = tested on: SW-620 colon
RXF 393 renal = tested on: RXF 393 renal
MALME-3M melanoma = tested on: MALME-3M melanoma
K-562 leukemia = tested on: K-562 leukemia
TK-10 renal = tested on: TK-10 renal
MCF7 breast = tested on: MCF7 breast
LOX IMVI melanoma = tested on: LOX IMVI melanoma
KM12 colon = tested on: KM12 colon
EKVX NSCLC = tested on: EKVX NSCLC
SK-MEL-28 melanoma = tested on: SK-MEL-28 melanoma
IGROV1 ovarian = tested on: IGROV1 ovarian
SF-268 CNS = tested on: SF-268 CNS
UACC-257 melanoma = tested on: UACC-257 melanoma
SNB-75 CNS = tested on: SNB-75 CNS
786-0 renal = tested on: 786-0 renal
NCI-H226 lung = tested on: NCI-H226 lung
HCT-15 colon = tested on: HCT-15 colon
OVCAR-4 ovarian = tested on: OVCAR-4 ovarian
BT-549 breast = tested on: BT-549 breast
CCRF-CEM leukemia = tested on: CCRF-CEM leukemia
DU-145 prostate = tested on: DU-145 prostate
SR leukemia = tested on: SR leukemia
ACHN renal = tested on: ACHN renal
SNB-19 CNS = tested on: SNB-19 CNS
PC-3 prostate = tested on: PC-3 prostate
HT29 colon = tested on: HT29 colon
U251 CNS = tested on: U251 CNS
A549 NSCLC = tested on: A549 NSCLC
SK-MEL-2 melanoma = tested on: SK-MEL-2 melanoma
M14 melanoma = tested on: M14 melanoma
SF-295 CNS = tested on: SF-295 CNS
MOLT-4 leukemia = tested on: MOLT-4 leukemia
NCI/ADR-RES ovarian = tested on: NCI/ADR-RES ovarian
HOP-92 NSCLC = tested on: HOP-92 NSCLC
CAKI-1 renal = tested on: CAKI-1 renal
SK-MEL-5 melanoma = tested on: SK-MEL-5 melanoma
HCT-116 colon = tested on: HCT-116 colon
UO-31 renal = tested on: UO-31 renal
HS 578T breast = tested on: HS 578T breast
SK-OV-3 ovarian = tested on: SK-OV-3 ovarian
MDA-MB-435 = tested on: MDA-MB-435
OVCAR-8 ovarian = tested on: OVCAR-8 ovarian
HL-60(TB) leukemia = tested on: HL-60(TB) leukemia
NCI-H522 lung = tested on: NCI-H522 lung
SF-539 CNS = tested on: SF-539 CNS
RPMI-8226 leukemia = tested on: RPMI-8226 leukemia
NCI-H460 lung = tested on: NCI-H460 lung
COLO 205 colon = tested on: COLO 205 colon
SN12C renal = tested on: SN12C renal
NCI-H23 lung = tested on: NCI-H23 lung
UACC-62 melanoma = tested on: UACC-62 melanoma
HOP-62 NSCLC = tested on: HOP-62 NSCLC
HCC-2998 colon = tested on: HCC-2998 colon
MDA-MB-231 breast = tested on: MDA-MB-231 breast
MDA-N = tested on: MDA-N
A498 renal = tested on: A498 renal
OVCAR-3 ovarian = tested on: OVCAR-3 ovarian
OVCAR-5 ovarian = tested on: OVCAR-5 ovarian
T-47D breast = tested on: T-47D breast

## Nc1nc(F)nc2c1ncn2C1OC(CO)C(O)C1O (stereo unspecified)
SW-620 colon
  GI50: 60.2 µM
  TGI: > 100 µM
RXF 393 renal
  GI50: 97.6 µM
  TGI: > 100 µM
MALME-3M melanoma
  GI50: 28.1 µM
  TGI: > 100 µM
K-562 leukemia
  TGI: > 100 µM
TK-10 renal
  TGI: > 100 µM
MCF7 breast
  GI50: 26.3 µM
  TGI: > 100 µM
LOX IMVI melanoma
  GI50: 19.9 µM
  TGI: > 100 µM
KM12 colon
  TGI: > 100 µM
EKVX NSCLC
  TGI: > 100 µM
SK-MEL-28 melanoma
  GI50: > 100 µM
  TGI: > 100 µM
IGROV1 ovarian
  GI50: 74.1 µM
  TGI: > 100 µM
SF-268 CNS
  GI50: 55.4 µM
  TGI: > 100 µM
UACC-257 melanoma
  TGI: > 100 µM
SNB-75 CNS
  TGI: > 100 µM
786-0 renal
  GI50: 13.2 µM
  TGI: > 100 µM
NCI-H226 lung
  TGI: > 100 µM
HCT-15 colon
  GI50: 56.7 µM
  TGI: > 100 µM
OVCAR-4 ovarian
  TGI: > 100 µM
BT-549 breast
  TGI: > 100 µM
CCRF-CEM leukemia
  GI50: 1.21 µM
  TGI: > 77 µM
DU-145 prostate
  GI50: 19.7 µM
  TGI: > 100 µM
SR leukemia
  GI50: > 68.9 µM
  TGI: > 100 µM
ACHN renal
  GI50: 23.2 µM
  TGI: > 100 µM
SNB-19 CNS
  GI50: 14.6 µM
  TGI: > 100 µM
PC-3 prostate
  GI50: 41.6 µM
  TGI: > 100 µM
HT29 colon
  TGI: > 100 µM
U251 CNS
  GI50: 70.7 µM
  TGI: > 100 µM
A549 NSCLC
  GI50: 35.6 µM
  TGI: > 100 µM
SK-MEL-2 melanoma
  TGI: > 100 µM
M14 melanoma
  GI50: 6.39 µM
  TGI: > 58.6 µM and 40.2 µM
SF-295 CNS
  TGI: > 100 µM
MOLT-4 leukemia
  TGI: > 100 µM
NCI/ADR-RES ovarian
  TGI: > 55.5 µM and 46.6 µM
HOP-92 NSCLC
  GI50: 14 µM
  TGI: > 100 µM and 97.6 µM
CAKI-1 renal
  GI50: 6.25 µM
  TGI: > 96.2 µM
SK-MEL-5 melanoma
  GI50: 39.7 µM
  TGI: > 100 µM
HCT-116 colon
  GI50: 19.4 µM
  TGI: > 100 µM
UO-31 renal
  GI50: 5.1 µM
  TGI: > 100 µM
HS 578T breast
  TGI: > 100 µM
SK-OV-3 ovarian
  TGI: > 100 µM
MDA-MB-435
  GI50: 17.1 µM
  TGI: > 100 µM
OVCAR-8 ovarian
  GI50: 3.64 µM
  TGI: > 100 µM
HL-60(TB) leukemia
  GI50: 3.3 µM
  TGI: > 100 µM
NCI-H522 lung
  GI50: 18.4 µM
  TGI: > 100 µM
SF-539 CNS
  TGI: > 100 µM
RPMI-8226 leukemia
  TGI: > 100 µM
NCI-H460 lung
  GI50: 43.2 µM
  TGI: > 100 µM
COLO 205 colon
  GI50: 27.8 µM
  TGI: > 100 µM
SN12C renal
  GI50: 5.55 µM
  TGI: > 72.2 µM and 45.1 µM
NCI-H23 lung
  GI50: 7.99 µM
  TGI: > 88.3 µM
UACC-62 melanoma
  GI50: 89.8 µM
  TGI: > 100 µM
HOP-62 NSCLC
  GI50: 13.6 µM
  TGI: > 79.6 µM
HCC-2998 colon
  GI50: 5.09 µM
  TGI: > 100 µM
MDA-MB-231 breast
  TGI: > 100 µM
MDA-N
  TGI: > 100 µM
A498 renal
  GI50: > 100 µM
  TGI: > 100 µM
OVCAR-3 ovarian
  TGI: > 100 µM
OVCAR-5 ovarian
  TGI: > 100 µM
T-47D breast
  GI50: > 56 µM
  TGI: > 100 µM
